Laboratory results reported in patent publication EP1534716B1, “HETEROBICYCLIC PYRAZOLE DERIVATIVES AS KINASE INHIBITORS” (priority 2002, dated 2004).
Counter-ions that a name gives are not always drawn.

Legend:
Type in all cases: biochemical
Aurora-2 = biological target: T1, Aurora-2 (Homo sapiens, UniProt O14965); assay: Inhibition assay of Aurora-2 activity (SPA); conditions: 10 µM ATP, 60 minutes at room temperature
T1 sequence (O14965 1-403): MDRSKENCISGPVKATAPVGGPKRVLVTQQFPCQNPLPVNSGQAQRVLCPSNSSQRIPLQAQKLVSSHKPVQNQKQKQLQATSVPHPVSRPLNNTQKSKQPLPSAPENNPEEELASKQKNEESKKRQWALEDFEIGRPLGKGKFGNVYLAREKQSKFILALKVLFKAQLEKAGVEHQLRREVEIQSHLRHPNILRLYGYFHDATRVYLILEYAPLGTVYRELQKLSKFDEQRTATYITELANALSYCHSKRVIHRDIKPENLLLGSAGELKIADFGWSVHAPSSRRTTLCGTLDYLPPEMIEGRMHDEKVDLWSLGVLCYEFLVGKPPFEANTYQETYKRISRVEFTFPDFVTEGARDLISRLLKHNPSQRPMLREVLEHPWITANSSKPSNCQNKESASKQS
Method: (§1) The inhibiting activity of putative cdk/cyclin inhibitors and the potency of selected compounds is determined through a method of assay based on the use of the SPA technology (Amersham Pharmacia Biotech).
(§2) The assay consists of the transfer of radioactivity labelled phosphate moiety by the kinase to a biotinylated substrate. The resulting 33P-labelled biotinylated product is allowed to bind to streptavidin-coated SPA beads (biotin capacity 130 pmol/mg), and light emitted was measured in a scintillation counter.
(§3) Experimental data were analyzed by the computer program GraphPad Prizm using the four parameter logistic equation: [formula] where x is the logarithm of the inhibitor concentration, y is the response; y starts at bottom and goes to top with a sigmoid shape.
Inhibition assay of Aurora-2 activity
After 60 minutes at room temperature incubation, reaction was stopped and biotinylated peptide captured by adding 100 µl of bead suspension.
Stratification: 100 µl of CsC12 5 M were added to each well and let stand 4 hour before radioactivity was counted in the Top-Count instrument.
IC50 determination: see above

cdk2/Cyclin A = cdk2/Cyclin A (Homo sapiens, UniProt P24941); assay: Inhibition assay of cdk2/Cyclin A activity (SPA); conditions: 10 µM ATP, 60 min at room temperature
Method: as §1, §2
Inhibition assay of cdk2/Cyclin A activity
Kinase reaction: 4 µM in house biotinylated histone H1 (Sigma # H-5505) substrate, 10 µM ATP (0.1 microCi P^33γ-ATP), 1.1 nM Cyclin A/CDK2 complex, inhibitor in a final volume of 30 µl buffer (TRIS HCl 10 mM pH 7.5, MgCl2 10 mM, DTT 7.5 mM + 0.2 mg/ml BSA) were added to each well of a 96 U bottom. After incubation for 60 min at room temperature, the reaction was stopped by addition of 100 µl PBS buffer containing 32 mM EDTA, 500 µM cold ATP, 0.1% Triton X100 and 10mg/ml streptavidin coated SPA beads. After 20 min incubation, 110 µL of suspension were withdrawn and transferred into 96-well OPTIPLATEs containing 100 µl of 5M CsCl. After 4 hours, the plates were read for 2 min in a Packard TOP-Count radioactivity reader.
as §3

Cdc7/dbf4 = Cdc7/dbf4 (Homo sapiens, UniProt O00311); assay: Inhibition assay of Cdc7/dbf4 activity (SPA); conditions: 2 µM ATP, 60 minutes at 37°C
Cdc7/dbf4, sequence (O00311 whole entry, species assumed): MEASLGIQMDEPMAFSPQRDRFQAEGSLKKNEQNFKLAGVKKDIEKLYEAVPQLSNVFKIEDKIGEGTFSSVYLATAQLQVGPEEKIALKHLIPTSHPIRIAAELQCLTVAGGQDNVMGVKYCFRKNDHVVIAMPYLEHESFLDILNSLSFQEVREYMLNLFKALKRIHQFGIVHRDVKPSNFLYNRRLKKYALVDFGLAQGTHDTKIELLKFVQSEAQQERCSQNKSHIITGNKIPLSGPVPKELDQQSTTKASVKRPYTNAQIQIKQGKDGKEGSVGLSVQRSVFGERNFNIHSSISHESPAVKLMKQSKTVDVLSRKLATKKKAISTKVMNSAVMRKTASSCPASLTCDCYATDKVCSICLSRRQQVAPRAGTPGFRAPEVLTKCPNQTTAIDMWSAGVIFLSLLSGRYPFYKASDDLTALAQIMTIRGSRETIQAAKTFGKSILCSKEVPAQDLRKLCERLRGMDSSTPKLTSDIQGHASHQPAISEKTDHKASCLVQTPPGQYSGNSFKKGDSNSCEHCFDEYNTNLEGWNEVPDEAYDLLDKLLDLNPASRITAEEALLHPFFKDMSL
Cdc7/dbf4, sequence (Q9UBU7 whole entry partner, species assumed): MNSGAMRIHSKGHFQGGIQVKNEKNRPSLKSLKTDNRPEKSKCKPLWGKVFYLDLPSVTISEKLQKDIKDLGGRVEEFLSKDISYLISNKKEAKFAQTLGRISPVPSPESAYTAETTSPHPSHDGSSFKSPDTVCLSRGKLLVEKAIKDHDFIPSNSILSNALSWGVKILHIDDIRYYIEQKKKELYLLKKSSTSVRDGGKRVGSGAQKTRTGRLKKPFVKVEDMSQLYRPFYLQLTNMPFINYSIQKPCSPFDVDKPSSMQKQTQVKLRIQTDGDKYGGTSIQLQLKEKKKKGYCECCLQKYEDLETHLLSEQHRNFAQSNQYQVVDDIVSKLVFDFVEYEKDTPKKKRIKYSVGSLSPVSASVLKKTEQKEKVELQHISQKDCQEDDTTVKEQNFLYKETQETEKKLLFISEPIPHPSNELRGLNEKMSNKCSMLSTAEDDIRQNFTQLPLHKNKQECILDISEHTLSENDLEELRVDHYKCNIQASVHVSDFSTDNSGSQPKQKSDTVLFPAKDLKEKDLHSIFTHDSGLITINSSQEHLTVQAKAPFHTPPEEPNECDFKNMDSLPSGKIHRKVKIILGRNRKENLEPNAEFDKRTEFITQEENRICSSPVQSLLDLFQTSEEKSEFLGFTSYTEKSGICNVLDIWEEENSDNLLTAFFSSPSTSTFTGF
Method: Inhibition assay of Cdc7/dbf4 activity
The inhibition assay of Cdc7/dbf4 activity is performed according to the following protocol.
The Biotin-MCM2 substrate is trans-phosphorylated by the Cdc7/Dbf4 complex in the presence of ATP traced with γ^33-ATP. The phosphorylated Biotin-MCM2 substrate is then captured by Streptavidin-coated SPA beads and the extent of phosphorylation evaluated by β counting.
The inhibition assay of Cdc7/dbf4 activity was performed in 96 wells plate according to the following protocol.
To each well of the plate were added: • 10 µl substrate (biotinylated MCM2, 6 µM final concentration) • 10 µl enzyme (Cdc7/Dbf4, 17.9 nM final concentration) • 10 µl test compound (12 increasing concentrations in the nM to µM range to generate a dose-response curve) • 10 µl of a mixture of cold ATP (2 µM final concentration) and radioactive ATP (1/5000 molar ratio with cold ATP) was then used to start the reaction which was allowed to take place at 37°C.
Substrate, enzyme and ATP were diluted in 50 mM HEPES pH 7.9 containing 15 mM MgCl2, 2 mM DTT, 3 µM NaVO3, 2mM glycerophosphate and 0.2mg/ml BSA. The solvent for test compounds also contained 10% DMSO.
After incubation for 60 minutes, the reaction was stopped by adding to each well 100 µl of PBS pH 7.4 containing 50 mM EDTA, 1 mM cold ATP, 0.1% Triton X100 and 10 mg/ml streptavidin coated SPA beads.
After 20 min incubation, 110 µL of suspension were withdrawn and transferred into 96-well OPTIPLATEs containing 100 µl of 5M CsCl. After 4 hours, the plates were read for 2 min in a Packard TOP-Count radioactivity reader.
IC50 determination: see above.

PAK4 = PAK4 (Homo sapiens, UniProt O96013); assay: PAK4 inhibition
PAK4, sequence (O96013 whole entry, species assumed): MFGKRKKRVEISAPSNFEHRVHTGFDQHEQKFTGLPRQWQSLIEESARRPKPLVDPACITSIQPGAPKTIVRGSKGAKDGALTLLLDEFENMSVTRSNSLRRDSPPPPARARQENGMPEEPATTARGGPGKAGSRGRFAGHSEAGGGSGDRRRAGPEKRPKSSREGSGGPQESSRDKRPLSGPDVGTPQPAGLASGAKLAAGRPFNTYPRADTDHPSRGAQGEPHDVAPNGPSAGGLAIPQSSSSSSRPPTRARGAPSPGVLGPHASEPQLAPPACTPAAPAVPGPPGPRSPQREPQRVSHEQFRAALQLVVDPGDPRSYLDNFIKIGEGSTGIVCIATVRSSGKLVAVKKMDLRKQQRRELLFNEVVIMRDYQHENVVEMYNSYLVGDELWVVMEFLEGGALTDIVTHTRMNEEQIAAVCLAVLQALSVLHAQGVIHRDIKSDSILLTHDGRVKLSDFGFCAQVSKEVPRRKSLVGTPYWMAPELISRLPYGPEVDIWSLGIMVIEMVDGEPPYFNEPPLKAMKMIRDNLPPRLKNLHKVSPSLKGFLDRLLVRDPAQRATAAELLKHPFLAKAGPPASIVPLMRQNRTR

| Compound | IC50 (Aurora-2) [nM] | IC50 (cdk2/Cyclin A) [nM] | IC50 (Cdc7/dbf4) [nM] | IC50 (PAK4) [nM] |
| --- | --- | --- | --- | --- |
| O=C(Nc1n[nH]c2cc(C(=O)O)sc12)c1ccc(N2CCOCC2)cc1 [Compound 57, 3-[(4-morpholin-4-ylbenzoyl)amino]-1H-thieno[3,2-c]pyrazole-5-carboxylic acid] | < 100 | < 500 | < 1000 |  |
| CCNC(=O)c1cc2[nH]nc(NC(=O)c3ccc(N4CCN(C)CC4)cc3)c2s1 [Compound 93, N-ethyl-3-{[4-(4-methylpiperazin-1-yl)benzoyl]amino}-1H-thieno[3,2-c]pyrazole-5-carboxamide dihydrochloride] |  | < 500 | < 1000 | < 500 |
| CCC(NC(=O)c1cc2[nH]nc(NC(=O)c3ccc(N4CCOCC4)cc3)c2o1)c1ccccc1 (stereo not drawn) [Compound 164, 3-[(4-morpholin-4-ylbenzoyl)amino]-N-[-1-phenylpropyl]-1H-furo[3,2-c]pyrazole-5-carboxamide] | < 100 | < 500 |  | < 500 |
| O=C(Nc1n[nH]c2cc(C(=O)O)oc12)c1ccc(N2CCOCC2)cc1 [Compound 161, 3-[(4-morpholin-4-ylbenzoyl)amino]-1H-furo[3,2-c]pyrazole-5-carboxylic acid] | < 100 | < 500 | < 1000 |  |
| CN1CCN(c2ccc(C(=O)Nc3n[nH]c4cc(C(=O)O)oc34)cc2)CC1 [Compound 162, 3-{[4-(4-methylpiperazin-1-yl)benzoyl]amino}-1H-furo[3,2-c]pyrazole-5-carboxylic acid] | < 100 |  | < 1000 |  |
| CN1CCN(c2ccc(C(=O)Nc3n[nH]c4cc(C(=O)NCc5cccn5C)sc34)cc2)CC1 [Compound 123, 3-{[4-(4-methylpiperazin-1-yl)benzoyl]amino}-N-[(1-methyl-1H-pyrrol-2-yl)methyl]-1H-thieno[3,2-c]pyrazole-5-carboxamide] | < 100 |  | < 1000 |  |
| CN1CCN(c2ccc(C(=O)Nc3n[nH]c4cc(C(=O)NCc5ccc(F)cc5F)sc34)cc2)CC1 [Compound 102, N-(2,4-difluorobenzyl)-3-{[4-(4-methylpiperazin-1-yl)benzoyl]amino}-1H-thieno[3,2-c]pyrazole-5-carboxamide] | < 100 |  | < 1000 | < 500 |
| CN1CCN(c2ccc(C(=O)Nc3n[nH]c4cc(C(=O)NCc5ccc(F)cc5)sc34)cc2)CC1 [Compound 95, N-(4-fluorobenzyl)-3-{[4-(4-methylpiperazin-1-yl)benzoyl]amino}-1H-thieno[3,2-c]pyrazole-5-carboxamide] | < 100 |  | < 1000 | < 500 |
| COC(=O)c1cc2[nH]nc(NC(=O)c3ccc(N4CCOCC4)cc3)c2s1 [Compound 52, methyl 3-[(4-morpholin-4-ylbenzoyl)amino]-1H-thieno[3,2-c]pyrazole-5-carboxylate] | < 100 |  | < 1000 | < 500 |
| CN1CCN(c2ccc(C(=O)Nc3n[nH]c4cc(C(=O)NCc5ccco5)sc34)cc2)CC1 [Compound 114, N-(2-furylmethyl)-3-{[4-(4-methylpiperazin-1-yl)benzoyl]amino}-1H-thieno[3,2-c]pyrazole-5-carboxamide] | < 100 | < 500 | < 1000 | < 500 |
| CN1CCN(c2ccc(C(=O)Nc3n[nH]c4cc(C(=O)NCc5ccccc5F)sc34)cc2)CC1 [Compound 101, N-(2-fluorobenzyl)-3-{[4-(4-methylpiperazin-1-yl)benzoyl]amino}-1H-thieno[3,2-c]pyrazole-5-carboxamide] | < 100 |  | < 1000 | < 500 |
| CCC(NC(=O)c1cc2[nH]nc(NC(=O)c3ccc(N4CCN(C)CC4)cc3)c2o1)c1ccccc1 (stereo not drawn) [Compound 165, 3-{[4-(4-methylpiperazin-1-yl)benzoyl]amino}-N-[1-phenylpropyl]-1H-furo[3,2-c]pyrazole-5-carboxamide] | < 100 | < 500 | < 1000 |  |
| O=C(Nc1n[nH]c2cc(C(=O)NCc3ccc(F)cc3)sc12)c1ccc(N2CCOCC2)cc1 [Compound 133, N-(4-fluorobenzyl)-3-[(4-morpholin-4-ylbenzoyl)amino]-1H-thieno[3,2-c]pyrazole-5-carboxamide] | < 100 |  |  | < 500 |
| COC[C@@H](NC(=O)c1cc2[nH]nc(NC(=O)c3ccc(N4CCOCC4)cc3)c2s1)c1ccccc1 [Compound 129, N-[(1S)-2-methoxy-1-phenylethyl]-3-[(4-morpholin-4-ylbenzoyl)amino]-1H-thieno[3,2-c]pyrazole-5-carboxamide] | < 100 |  |  | < 500 |
| CN1CCN(c2ccc(C(=O)Nc3n[nH]c4cc(C(=O)NCc5cccs5)sc34)cc2)CC1 [Compound 115, 3-{[4-(4-methylpiperazin-1-yl)benzoyl]amino}-N-(thien-2-ylmethyl)-1H-thieno[3,2-c]pyrazole-5-carboxamide] | < 100 |  | < 1000 | < 500 |
| CN1CCN(c2ccc(C(=O)Nc3n[nH]c4cc(C(=O)NCc5ccoc5)sc34)cc2)CC1 [Compound 124, N-(3-furylmethyl)-3-{[4-(4-methylpiperazin-1-yl)benzoyl]amino}-1H-thieno[3,2-c]pyrazole-5-carboxamide] | < 100 | < 500 | < 1000 |  |
